# From US12553889B2, “Small molecules targeting the intrinsically disordered structural ensemble of α-synuclein protect against diverse α-synuclein mediated dysfunctions” (The Regents of the University of California, priority 2019, dated 2026)
# Entries after “also recorded” stand apart in the source; their conditions may differ.
# Assays:
# [1] = tested on: primary rat embryonic midbrain neurons; experiment: Toxicity to primary midbrain dopaminergic neurons; assay type: cell-based; conditions: compound alone, 60 μM
# Experimental: Primary midbrain cultures were prepared and dopaminergic neuronal viability in the presence and absence of αSyn was assessed as previously described and repeated herein. Primary midbrain cultures were prepared from embryonic day 17 embryos of Sprague-Dawley rats using methods reviewed and approved by the Purdue Animal Care and Use Committee as described previously. After dissection, the cells were plated into a poly-L-lysine-treated 48-well plate at a density of 163,500 cells per well. Four days later, the cells were treated with cytosine arabinofuranoside (AraC) (20 μM) for 48 hours to inhibit the growth of glial cells. The cultures were used for measurements of dopaminergic neuron viability at 7 days in vitro. […] In order to determine the viability of dopaminergic neurons, MAP2- and TH-positive neurons were counted in 10 to 15 randomly chosen observation fields in a blinded manner using a Nikon TE2000-U inverted fluorescence microscope (Nikon Instruments, Melville NY) with a 20× objective. In the control conditions, and in conditions where the compound was neuroprotective, typically 500 to 1,300 MAP2-positive neurons were counted, a range that corresponds to 20 to 50 TH-positive neurons. The data were expressed as the ratio of the TH-positive neurons to the MAP2-positive neurons. […]
# αSyn = αSyn (Homo sapiens, UniProt P37840); experiment: Biacore T200 SPR kinetics and affinity to tethered αSyn; assay type: binding; parameters: made in house; host or cells: E. coli
# Experimental: RU (resonance units) from the Biacore machine are plotted against time. […] 576755 was injected at six concentrations in two-fold dilutions starting at 200 μM in running buffer containing 25 mM TRIS pH 7.4, 100 mM NaCl, 1% DMSO. […] All data were fitted to 1:1 binding model using the T200 software evaluation.
# A Biacore Surface Plasmon Resonance (SPR) method was developed to detect binding to αSyn both in a high throughput manner (Biacore 4000 machine) and in a sensitive format (Biacore T200). A dual capture method was developed in which αSyn is captured both by an antibody to the central region of αSyn and by immobilized N-termal His-tagged αSyn. […]
# Surface Plasmon Resonance Measurements. […] Time-dependent binding curves were monitored simultaneously. […] The time-dependent binding curves were monitored simultaneously. […]
# Affinity constants were determined using the Biacore T200 evaluation software V.1 by curve fitting using a 1:1 binding model. […] The rate of complex formation during fragment injection is calculated according to the equation (2): dR/dt=kaC(Rmax−R)−kdR (1:1 interaction), where R is the SPR signal in response units (RU), C is the concentration of analyte, Rmax is the maximum analyte binding capacity in RU, and dR/dt is the rate of SPR signal change. […]
structure (smiles),measurement,setting,value
"CNC(=O)c1cc(O)ccc1N [Compound 576755, 2-amino-5-hydroxy-N-methylbenzamide]",toxic effect on primary dopaminergic neurons,[1],no detectable toxic effect; also recorded: not toxic
same,Kd,"αSyn; six concentrations in two-fold dilutions from 200 μM, 25 mM TRIS pH 7.4, 100 mM NaCl, 1% DMSO, read-out: binding affinity for αSyn (kinetics fits, 1:1 binding model)",73 µM
same,"binding behaviour (Biacore traces, off rates)",αSyn; tethered αSyn,"well-behaved, robust and reversible binding"
